# Test results from US9999656B2, “Treatment of short bowel syndrome patients with colon-in-continuity” (Shire-NPS Pharmaceuticals, Inc., priority 2004, dated 2018).
# Columns and labels:
# [1] = tested on: intestinal mucosa of SBS patients; test: Morphological analysis of intestinal biopsies (villus height, crypt depth, mitotic index); assay type: in vivo, human
# Procedure: Endoscopic examinations were performed in each subject at the completion of baseline, treatment and follow-up phases. All tissue samples for measurement of villus height and crypt depth were prepared and analyzed in a blinded fashion by the same pathologist. Villus height and crypt depth were measured using light microscopy (eyepiece micrometer) as the mean of ten well-oriented villi and crypts. The number of mitotic figures per 100 crypt epithelial cells was calculated.
# [2] = Body weight following teduglutide treatment; assay type: in vivo, human; details: not significant (p=0.120)
# [3] = jejunum / small intestine biopsies, Group 2 end-jejunostomy
compound,measurement,setting,value
"CC[C@H](C)[C@H](NC(=O)[C@H](Cc1ccccc1)NC(=O)[C@H](CC(=O)O)NC(=O)[C@H](CCCNC(=N)N)NC(=O)[C@H](C)NC(=O)[C@H](C)NC(=O)[C@H](CC(C)C)NC(=O)[C@H](CC(N)=O)NC(=O)[C@H](CC(=O)O)NC(=O)[C@H](CC(C)C)NC(=O)[C@@H](NC(=O)[C@@H](NC(=O)[C@H](CC(N)=O)NC(=O)[C@H](CCSC)NC(=O)[C@H](CCC(=O)O)NC(=O)[C@H](CC(=O)O)NC(=O)[C@H](CO)NC(=O)[C@H](Cc1ccccc1)NC(=O)[C@H](CO)NC(=O)CNC(=O)[C@H](CC(=O)O)NC(=O)CNC(=O)[C@@H](N)Cc1c[nH]cn1)[C@@H](C)O)[C@@H](C)CC)C(=O)N[C@@H](CC(N)=O)C(=O)N[C@@H](Cc1c[nH]c2ccccc12)C(=O)N[C@@H](CC(C)C)C(=O)N[C@H](C(=O)N[C@@H](CCC(N)=O)C(=O)N[C@H](C(=O)N[C@@H](CCCCN)C(=O)N[C@H](C(=O)N[C@H](C(=O)N[C@@H](CC(=O)O)C(=O)O)[C@@H](C)O)[C@@H](C)CC)[C@@H](C)O)[C@@H](C)CC [teduglutide, [Gly2]hGLP-2]",sets of colonic biopsies with increased crypt depth,[1]; Group 3 colon-in-continuity,four of five
same,increase in mitotic index (colonic biopsies),"[1]; colonic biopsies, Group 3 colon-in-continuity, not significant (p=0.170)",76±112%
same,mean increase in colonic crypt depth,"[1]; colonic biopsies, Group 3 colon-in-continuity, not significant (p=0.330)",13±22%
same,increase in crypt depth,[1]; [3],22±18%
same,increase in mitotic index,[1]; [3],115±108%
same,increase in villus height,[1]; [3],38±45%
same,number of patients with significant histological changes in the jejunum,[1]; of the 8 Group 2 patients who were biopsied,7
same,increase in body weight following teduglutide treatment,[2],0.9 ± 2.1 kg
